Test results: patent publication US9546139B2, “Pyridine carboxylic acid based compound used as a P2X1 and P2X3 receptor antagonist, a production method for the same and a composition comprising the same” (GWANGJU INSTITUTE OF SCIENCE AND TECHNOLOGY, priority 2010, dated 2017)

Assays:
Format in all cases: cell-based
[1] = target: T1, mouse P2X1 receptor (Mus musculus, UniProt P51576); experiment: Two-electrode voltage clamp, ATP-induced ion current in Xenopus oocytes expressing mouse P2X1; details: for % inhibition mP2X1 / inhibition at 10 µM: Table 2, 10 μM compound, ion current induced by 2 μM ATP, mean ± SEM, n = 4; for inhibition at 10 µM: read-out: % inhibition mP2X1; for Hill coefficient: concentration-inhibitory curve, 2 μM ATP (FIG. 1B, FIG. 2A); for IC50: concentration-response curve, 2 μM ATP, mean of four observations, read-out: IC50 value
T1 construct: EST clones containing full-length cDNAs of mouse P2X1 (clone ID: 4189541) and human P2X7 receptor (clone ID: 5286944); host or cells: Xenopus oocytes (cRNA injected)
T1 sequence (P51576 1-399): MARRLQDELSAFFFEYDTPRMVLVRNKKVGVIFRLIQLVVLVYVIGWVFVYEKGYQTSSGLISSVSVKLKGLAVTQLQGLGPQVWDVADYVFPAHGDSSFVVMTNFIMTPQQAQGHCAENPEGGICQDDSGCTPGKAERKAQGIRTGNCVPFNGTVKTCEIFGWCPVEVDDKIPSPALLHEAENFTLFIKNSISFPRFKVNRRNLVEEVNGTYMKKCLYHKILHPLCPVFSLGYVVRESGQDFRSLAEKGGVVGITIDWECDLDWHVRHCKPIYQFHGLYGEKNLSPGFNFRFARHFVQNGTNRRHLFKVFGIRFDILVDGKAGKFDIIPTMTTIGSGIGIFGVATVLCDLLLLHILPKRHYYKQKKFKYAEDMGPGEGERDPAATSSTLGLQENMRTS
Protocol: 1-1. Antagonistic Activity at Recombinant Mouse P2X1 and Human P2X3 Receptors
(§1) Xenopus oocytes were harvested and prepared with method as previously described in publications. Defolliculated oocytes were injected cytosolically with mouse P2X1 and human P2X3 receptor cRNA ([…], 1 μg/mL), respectively, incubated for 24 hrs at 18° C. in Barth's solution and kept for up to 12 days at 4° C. until used in electrophysiological experiments. ATP-activated membrane currents (Vh=−70 mV) were recorded from cRNA-injected oocytes using the twin-electrode voltage-clamp technique (Axoclamp 2B amplifier). Voltage recording (1-2 MΩ tip resistance) and current-recording microelectrodes (5 MΩ tip resistance) were filled with 3.0 M KCl. Oocytes were held in an electrophysiological chamber and superfused with Ringer's solution (5 mL/min, at 18° C.) containing (mM) NaCl, 110; KCl, 2.5; HEPES, 5; BaCl2, 1.8, adjusted to pH 7.5. ATP was superfused over the oocytes for 60-120s then washed out for a period of 20 min. For inhibition curves, data were normalized to the current evoked by ATP, at pH 7.5. Test substances were added for 20 min prior to ATP exposure; all peptides were tested for reversibility of their effects. The concentration required to inhibit the ATP response by 50% (IC50) was taken from Hill plots constructed using the formula: log(I/Imax−1), where I is the current evoked by ATP in the presence of an antagonist. Data are presented as mean±SEM (n=4) for the data from different batches of oocytes.

[2] = target: T2, human P2X7 receptor (Homo sapiens, UniProt Q99572); experiment: Ethidium+ accumulation assay in human P2X7-expressing HEK293 cells; details: 10 μM compound, ethidium+ accumulation induced by 6 μM BzATP, n = 3
T2 construct: EST clones containing full-length cDNAs of mouse P2X1 (clone ID: 4189541) and human P2X7 receptor (clone ID: 5286944); host or cells: HEK293
T2 sequence (Q99572 1-595): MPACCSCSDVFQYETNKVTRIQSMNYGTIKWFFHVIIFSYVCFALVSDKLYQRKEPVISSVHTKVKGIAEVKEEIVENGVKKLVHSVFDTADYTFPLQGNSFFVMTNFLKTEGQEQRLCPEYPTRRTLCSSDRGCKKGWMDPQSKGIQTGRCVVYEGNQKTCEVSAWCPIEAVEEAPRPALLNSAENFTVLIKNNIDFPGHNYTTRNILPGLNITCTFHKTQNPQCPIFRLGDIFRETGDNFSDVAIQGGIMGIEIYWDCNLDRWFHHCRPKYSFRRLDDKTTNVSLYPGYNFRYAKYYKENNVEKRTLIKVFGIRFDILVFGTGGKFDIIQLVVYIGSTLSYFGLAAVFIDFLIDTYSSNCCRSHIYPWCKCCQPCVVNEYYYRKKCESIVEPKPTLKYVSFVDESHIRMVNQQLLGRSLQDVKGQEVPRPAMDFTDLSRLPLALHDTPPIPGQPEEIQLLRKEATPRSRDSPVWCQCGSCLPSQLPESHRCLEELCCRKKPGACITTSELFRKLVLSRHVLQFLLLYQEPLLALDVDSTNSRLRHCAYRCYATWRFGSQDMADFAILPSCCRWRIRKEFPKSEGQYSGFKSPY
Protocol: 1-2. Ethidium^+ Accumulation Assay at Human P2X7 Receptors
Human P2X7-expressing HEK293 cells were grown as monolayer culture at 37° C. in a humidified atmosphere of 5% CO2, DMEM supplemented with 10% fetal bovine serum. Cells were harvested with treatment of Trypsin/EDTA solution, collected by centrifugation (200 g for 5 min).
The cells were resuspended at 2.5×10^6 cells/mL in assay buffers, consisting of (in mM) HEPES 10, KCl 140, glucose 5, EDTA 1 (pH 7.4), and then ethidium bromide (100 μM) was added. Cell suspensions were added to 96 well plates containing the P2X7 receptor agonist, ATP or BzATP, at 2×10^5 cells/wells. Plates were incubated at 37° C. for 120 min and cellular accumulation of ethidium^+ was determined by measuring fluorescence with Bio-Tek instrument FL600 fluorescent plate reader (excitation wavelength of 530 nm and emission wavelength of 590 nm). When the effects of antagonists, such as PPADS, KN62, and test peptides were studied, antagonists were treated together with agonist without pre-incubation.

[3] = target: T3, human P2X3 receptor (Homo sapiens, UniProt P56373); experiment: Two-electrode voltage clamp, ATP-induced ion current in Xenopus oocytes expressing human P2X3; details: for inhibition at 10 µM: read-out: % inhibition hP2X3; for inhibition at 0.1 µM: concentration of 100 nM, receptor not stated in the sentence (follows FIG. 2B, human P2X3), read-out: % inhibition; for Hill coefficient: concentration-inhibitory curve, 2 μM ATP (FIG. 1C, FIG. 2B); for IC50: concentration-response curve, 2 μM ATP, mean of four observations, read-out: IC50 value
T3 construct: expressed in transfected cells; host or cells: Xenopus oocytes (cRNA injected); cDNA from the Max-Planck Institute laboratory (Dr. W. Stuhmer and Dr. F. Soto)
T3 sequence (P56373 1-397): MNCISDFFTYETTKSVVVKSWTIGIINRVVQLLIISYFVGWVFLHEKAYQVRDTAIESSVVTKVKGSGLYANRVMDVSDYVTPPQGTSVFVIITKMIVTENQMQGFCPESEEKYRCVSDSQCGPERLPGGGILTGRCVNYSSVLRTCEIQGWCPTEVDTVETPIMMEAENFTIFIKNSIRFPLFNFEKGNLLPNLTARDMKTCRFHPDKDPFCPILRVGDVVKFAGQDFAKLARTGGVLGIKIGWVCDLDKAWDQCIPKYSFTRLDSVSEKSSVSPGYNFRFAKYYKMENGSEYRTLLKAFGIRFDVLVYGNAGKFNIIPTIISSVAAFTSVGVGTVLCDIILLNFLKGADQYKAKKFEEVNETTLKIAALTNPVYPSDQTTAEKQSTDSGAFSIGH
Protocol: Antagonistic Activity at Recombinant Mouse P2X1 and Human P2X3 Receptors
as §1

[4] = Table 2, 10 μM compound, ion current induced by 2 μM ATP, mean ± SEM, n = 4

Row | % inhibition mP2X1 [1] [%] | % inhibition hP2X7 [2] | % inhibition hP2X3 [3, 4] [%] | inhibition at 10 µM [1] [%] | inhibition at 10 µM [3, 4] [%] | Hill coefficient [1] | IC50 [1] [nM] | inhibition at 0.1 µM [3] [%] | Hill coefficient [3] | IC50 [3] [nM] | Structure (SMILES)
1 | 53.9 ± 5.1 | inactive | 62.9 ± 7.1 | – | – | – | – | – | – | – | Cc1nc(CC(c2ccccc2)c2ccccc2)c(C(=O)O)c(C(=O)O)c1O [Compound 51, 2-(2,2,-diphenylethyl)5-hydroxy-6-methylpyridine-3,4-dicarboxylic acid]
2 | – | inactive | – | 52.4 ± 6.2 | 39.3 ± 3.8 | – | – | – | – | – | COc1cccc(CCc2nc(C)c(O)c(C(=O)O)c2C(=O)O)c1 [Compound 40, 5-Hydroxy-2-[2-(3-methoxy-phenyl)-ethyl]-6-methyl-pyridine-3,4-dicarboxylic acid]
3 | – | inactive | – | 52.8 ± 5.6 | 72.6 ± 4.3 | – | – | – | – | – | COc1ccc(CCc2nc(C)c(O)c(C=O)c2C(=O)O)cc1 [Compound 67, 4-formyl-5-hydroxy-2-(4-methoxyphenethyl)-6-methylnicotinic acid]
4 | – | inactive | – | 49.8 ± 5.4 | 34.5 ± 4.3 | – | – | – | – | – | COc1ccccc1CCc1nc(C)c(O)c(C(=O)O)c1C(=O)O [Compound 41, 5-Hydroxy-2-[2-(2-methoxy-phenyl)-ethyl]-6-methyl-pyridine-3,4-dicarboxylic acid]
5 | – | inactive | – | 47.9 ± 8.1 | 37.3 ± 10 | – | – | – | – | – | CC(=O)c1c(O)c(C)nc(CCc2ccccc2)c1C(=O)O [Compound 45, 4-acetyl-5-hydroxy-6-methyl-2-phenethylnicotinic acid]
6 | – | inactive | – | 71.4 ± 4.3 | 48.4 ± 9 | −0.98±0.11 | 509 | 19.2 | −0.52±0.12 | 782 | Cc1nc(C=Cc2ccccc2)c(C(=O)O)c(C(=O)O)c1O [Compound 38, 5-Hydroxy-6-methyl-2-styryl-pyridine-3,4-dicarboxylic acid]
7 | 44.2 ± 4.0 | inactive | – | 46 | 18.3 ± 6.4 | – | – | – | – | – | CC(=O)c1c(O)c(C)nc(Cc2ccccc2)c1C(=O)O [Compound 44, 4-acetyl-2-benzyl-5-hydroxy-6-methylnicotinic acid]
8 | – | inactive | – | 11.4 ± 3.3 | 6.3 ± 2.3 | – | – | – | – | – | COc1ccccc1/C=C/c1nc(C)c(O)c(C(C)=O)c1C(=O)O [Compound 49, (E)-4-acetyl-5-hydroxy-2-(2-methoxystyryl)-6-methylnicotinic acid]
9 | – | inactive | – | 40.4 ± 1.3 | 27.4 ± 5.5 | – | – | – | – | – | CC(=O)c1c(O)c(C)nc(/C=C/c2ccccc2)c1C(=O)O [Compound 47, (E)-4-acetyl-5-hydroxy-6-methyl-2-styrylnicotinic acid]
10 | – | inactive | – | 48.3 ± 4.1 | 67.9 ± 5.2 | – | – | – | – | – | Cc1nc(Cc2cccc3ccccc23)c(C(=O)O)c(C(=O)O)c1O [Compound 50, 5-Hydroxy-6-methyl-2-(naphthalene-1-ylmethyl)pyridine-3,4-dicarboxylic acid]

Continued, molecule first:

Row | Structure (SMILES) | % inhibition mP2X1 [1] [%] | % inhibition hP2X7 [2] | % inhibition hP2X3 [3, 4] [%] | inhibition at 10 µM [1] [%] | inhibition at 10 µM [3, 4] [%] | Hill coefficient [1] | IC50 [1] [nM] | inhibition at 0.1 µM [3] [%] | Hill coefficient [3] | IC50 [3] [nM]
11 | Cc1nc(Cc2ccccc2)c(C(=O)O)c(C(=O)O)c1O [Compound 35, 2-Benzyl-5-hydroxy-6-methyl-pyridine-3,4-dicarboxylic acid] | – | inactive | – | 54.2 ± 10.6 | 31.4 ± 6.2 | – | – | – | – | –
12 | COc1ccc(CCc2nc(C)c(O)c(C=O)c2/C=C/C(=O)O)cc1 [Compound 64, (E)-3-(4-formyl-5-hydroxy-2-(4-methoxyphenethyl)-6-methylpyridin-3-yl)acrylic acid] | – | inactive | – | 51.4 ± 4.8 | 69.4 ± 7.5 | – | – | – | – | –
13 | Cc1nc(CCc2ccccc2)c(C(=O)O)c(C(=O)O)c1O [Compound 36, 5-Hydroxy-6-methyl-2-phenethyl-pyridine-3,4-dicarboxylic acid] | 73.4 ± 9.7 | inactive | – | 77 | 51 ± 9.8 | −1.03±0.21 | 361 | 38.3 | −0.63±0.20 | 432
14 | COc1ccc(CCc2nc(C)c(O)c(C(=O)O)c2C(=O)O)cc1 [Compound 37, 5-Hydroxy-2-[2-(4-methoxy-phenyl)ethyl]-6-methyl-pyridine-3,4-dicarboxylic acid] | 77.0 ± 3.8 | inactive | – | 78 | 59.8 ± 4.6 | – | – | – | – | –
15 | COc1ccc(CCc2nc(C)c(O)c(C=O)c2CCC(=O)O)cc1 [Compound 61, 3-(4-formyl-5-hydroxy-2-(4-methoxyphenethyl)-6-methylpyridin-3-yl)propanoic acid] | – | inactive | – | 50.9 ± 6.1 | 70.5 ± 4.7 | – | – | – | – | –
16 | COc1cccc(/C=C/c2nc(C)c(O)c(C(C)=O)c2C(=O)O)c1 [Compound 48, (E)-4-acetyl-5-hydroxy-2-(3-methoxystyryl)-6-methylnicotinic acid] | – | inactive | – | 29.9 ± 5.7 | 15.8 ± 9 | – | – | – | – | –
